In patent US8822485B2, “Amino heteroaryl compounds as beta-secretase modulators and methods of use” (Amgen Inc., priority 2010, dated 2014):

What was measured:
[1] = tested on: Aβ40 in conditioned medium of cells stably expressing Amyloid Precursor Protein (APP) (HEK cell); assay: In vitro BACE cell-based assay (HEK cell assay, Aβ40 sandwich ELISA); settings: Homo sapiens, HEK293; IC50 range class; inhibition of Aβ40 after 24 h incubation
Description: In Vitro BACE Cell-Based Assay:
The cell-based assay measures inhibition or reduction of Aβ40 □ in conditioned medium of test compound treated cells expressing amyloid precursor protein.
Cells stably expressing Amyloid Precursor Protein (APP) were plated at a density of 40K cells/well in 96 well plates (Costar). The cells were cultivated for 24 hours at 37° C. and 5% CO2 in DMEM supplemented with 10% FBS. The test compounds were then added to cells in 10-point dose response concentrations with the starting concentration being either 100 μM or 10 μM. The compounds were diluted from stock solutions in DMSO and the final DMSO concentration of the test compounds on cells was 0.1%. After 24 h of incubation with the test compounds the supernatant conditioned media was collected and the Aβ 40 levels were determined using a sandwich ELISA. The IC50 of the compound was calculated from the percent of control or percent inhibition of Aβ40 as a function of the concentration of the test compound.
The sandwich ELISA to detect Aβ 40 was performed in 96 well microtiter plates, which were pre-treated with goat anti-rabbit IgG (Pierce). The capture and detecting antibody pair that were used to detect Aβ 40 from cell supernatants were affinity purified pAb40 (Biosource) and biotinylated 6E10 (Signet Labs Inc.), respectively. The optimal concentration for the pAb40 antibody was 3 μg/ml in Superblock/TBS (Pierce) that was supplemented with 0.05% Tween 20 (Sigma). Optimal concentration for the detection antibody 6E10-biotinylated was 0.5 μg/ml in Superblock/TBS (Pierce) that had been supplemented with 2% normal goat serum and 2% normal mouse serum.
Cellular supernatants were incubated with the capture antibody for 3 h at 4° C., followed by 3 wash steps in TBS-tween (0.05%). The detecting antibody incubation was for 2 h at 4° C., again followed by the wash steps as described previously. The final readout of the ELISA is Time-Resolved Fluorescence (counts per minute) using Delfia reagents Streptavidin-Europium and Enhancement solutions (Perkin Elmer) and the Victor 2 multilabel counter (Perkin Elmer).
Of the compounds tested, the cell based assay data for each of Examples 1-33, where available at the time of filing this application, is provided in Table 1.

[2] = biological target: BACE1 (Homo sapiens, UniProt P56817); assay: In vitro enzymatic BACE FRET assay; type: biochemical; settings: IC50 range class; 0.2 nM enzyme, 50 nM FRET substrate, pH 4.2
Sequence of BACE1 (P56817 46-501, species assumed): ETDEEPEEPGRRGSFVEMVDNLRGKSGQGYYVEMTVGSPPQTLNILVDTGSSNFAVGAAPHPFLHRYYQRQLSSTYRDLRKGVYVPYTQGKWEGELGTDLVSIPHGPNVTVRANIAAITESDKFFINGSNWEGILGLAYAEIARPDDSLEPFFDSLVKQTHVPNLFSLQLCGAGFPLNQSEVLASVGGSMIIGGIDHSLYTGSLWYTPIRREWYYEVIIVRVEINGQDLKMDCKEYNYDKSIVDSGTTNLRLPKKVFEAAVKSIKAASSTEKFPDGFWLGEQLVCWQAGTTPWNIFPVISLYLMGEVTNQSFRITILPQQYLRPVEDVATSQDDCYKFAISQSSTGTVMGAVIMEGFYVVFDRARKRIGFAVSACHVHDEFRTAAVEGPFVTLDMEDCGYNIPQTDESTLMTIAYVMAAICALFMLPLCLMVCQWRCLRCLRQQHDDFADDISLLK
Description: In Vitro Enzymatic BACE FRET (Fluorescence Resonance Energy Transfer) Assay (Enzyme Assay Data in Table 1)
The assay buffer used in this screen is 0.05 M acetate, pH 4.2, 10% DMSO final, 100 uM genapol (which is a nonionic detergent, below its Critical Micelle Concentration). The Beta Secretase enzyme (0.2 nM) is pre-incubated for one hour with inhibitors, typically in about 1 uL of DMSO according to a serial dilution, are added thereto. The assay is effectively started by the addition of FRET substrate (50 nM) and the combination is incubated for one hour. The FRET assay is terminated with by addition of Tris buffer, which raises the pH to neutrality, and the fluorescence is determined. The FRET substrate is a peptide with commercially available fluorophore and quencher, on opposite sides of the BACE cleavage site. Proteolytic cleavage of the FRET substrate releases quenching of fluorescence (excitation […] and […]).
Of the compounds tested, the in-vitro BACE FRET enzyme data for each of Examples 1-33, where available at the time of filing this application, is provided in Table 1.

Row | SMILES | IC50 [2] | IC50 [1]
1 | Cc1ccccc1-c1ccc2nc(N)c(C3OCCCC3c3cc(CC(C)(C)C)ncn3)cc2c1 (single isomer, unassigned) [Example 7] | < 100 nM | 1000 to 5000 nM
2 | Cc1ccccc1-c1ccc2nc(N)c(C3CCCC3c3cc(C4CCCC4)ncn3)cc2c1 (centres unmarked) [Example 1, 3-(2-(6-cyclopentylpyrimidin-4-yl)cyclopentyl)-6-o-tolylquinolin-2-amine] | < 100 nM | > 5000 nM
3 | Cc1ccccc1-c1ccc2nc(N)c(C=Cc3cncc(C4=CCCCC4)c3)cc2c1 [Example 2, 3-(2-(5-cyclohexenylpyridin-3-yl)vinyl)-6-o-tolylquinolin-2-amine] | 100 to 1000 nM | > 5000 nM
4 | Cc1ccccc1-c1ccc2nc(N)c(CC(C)c3cc(CC(C)(C)C)ncn3)cc2c1 (centres unmarked) [Example 9, 3-(2-(6-neopentylpyrimidin-4-yl)propyl)-6-o-tolylquinolin-2-amine] | < 100 nM | 500 to 1000 nM
5 | Cc1ccccc1-c1ccc2nc(N)c(CC(C)c3cc(C4CCCC4)ncn3)cc2c1 (centres unmarked) [Example 13, 3-(2-(6-cyclopentylpyrimidin-4-yl)propyl)-6-o-tolylquinolin-2-amine] | < 100 nM | 1000 to 5000 nM
6 | Cc1cccnc1-c1ccc2nc(N)c(CC(C)c3cc(CC(C)(C)C)ncn3)cc2c1 (centres unmarked) [Example 15, 6-(3-methylpyridin-2-yl)-3-(2-(6-neopentylpyrimidin-4-yl)propyl)quinolin-2-amine] | 100 to 1000 nM | 500 to 1000 nM
7 | Cc1cccnc1-c1ccc2nc(N)c(CCc3cc(C(C)(C)C)ncn3)cc2c1 [Example 16, 3-(2-(6-tert-butylpyrimidin-4-yl)ethyl)-6-(3-methylpyridin-2-yl)quinolin-2-amine] | 100 to 1000 nM | 1000 to 5000 nM
8 | Cc1ccccc1-c1ccc2nc(N)c(CCc3cc4ccccc4[nH]3)cc2c1 [Example 17, 3-(2-(1H-indol-2-yl)ethyl)-6-o-tolylquinolin-2-amine] | 1000 to 5000 nM | 500 to 1000 nM
9 | Cc1ccccc1-c1ccc2nc(N)c(CCc3cncc(CC(C)C)c3)cc2c1 [Example 18, 3-(2-(5-isobutylpyridin-3-yl)ethyl)-6-o-tolylquinolin-2-amine] | 100 to 1000 nM | 1000 to 5000 nM
10 | Cc1cccnc1-c1ccc2nc(N)c(CCc3cc(C4CCOCC4)ncn3)cc2c1 [Example 20, 6-(3-methylpyridin-2-yl)-3-(2-(6-(tetrahydro-2H-pyran-4-yl)pyrimidin-4-yl)ethyl)quinolin-2-amine] | 100 to 1000 nM | 1000 to 5000 nM
11 | Cc1ccccc1-c1ccc2nc(N)c(CCc3cnn(C4CCCCC4)c3)cc2c1 [Example 25, 3-(2-(1-cyclohexyl-1H-pyrazol-4-yl)ethyl)-6-o-tolylquinolin-2-amine] | < 100 nM | 1000 to 5000 nM
12 | Cc1ccccc1-c1ccc2nc(N)c(CC(C)c3cncc(C4CCCCO4)c3)cc2c1 (centres unmarked) [Example 26, 3-(2-(5-(tetrahydro-2H-pyran-2-yl)pyridin-3-yl)propyl)-6-o-tolylquinolin-2-amine] | 100 to 1000 nM | 1000 to 5000 nM
13 | Cc1ccccc1-c1ccc2nc(N)c(CCc3cnco3)cc2c1 [Example 28, 3-(2-(oxazol-5-yl)ethyl)-6-o-tolylquinolin-2-amine] | 1000 to 5000 nM | > 5000 nM

More lines, main results first:

Row | IC50 [2] | SMILES | IC50 [1]
14 | < 100 nM | Cc1cccc(C(=O)N2CCCC2C)c1-c1ccc2nc(N)c(CCc3cncnc3)cc2c1 (racemic) [Example 32, (±)-(2-(2-amino-3-(2-(pyrimidin-5-yl)ethyl)quinolin-6-yl)-3-methylphenyl)(2-methylpyrrolidin-1-yl)methanone] | < 500 nM
15 | < 100 nM | Cc1ccccc1-c1ccc2nc(N)c(CCc3cncc(C4CCCCC4)c3)cc2c1 [Example 3, 3-(2-(5-cyclohexylpyridin-3-yl)ethyl)-6-o-tolylquinolin-2-amine] | > 5000 nM
16 | 1000 to 5000 nM | CCc1cncc(CCc2cc3cc(-c4ccccc4C)ccc3nc2N)c1 [Example 5, 3-(2-(5-ethylpyridin-3-yl)ethyl)-6-o-tolylquinolin-2-amine] | 1000 to 5000 nM
17 | 100 to 1000 nM | Cc1cccnc1-c1ccc2nc(N)c(CCc3cc(CC(C)(C)C)ncn3)cc2c1 [Example 6, 6-(3-methylpyridin-2-yl)-3-(2-(6-neopentylpyrimidin-4-yl)ethyl)quinolin-2-amine] | 1000 to 5000 nM
18 | < 100 nM | Cc1ccccc1-c1ccc2nc(N)c(CCc3cc(C(C)(C)C)ncn3)cc2c1 [Example 8, 3-(2-(6-tert-butylpyrimidin-4-yl)ethyl)-6-o-tolylquinolin-2-amine] | 1000 to 5000 nM
19 | 100 to 1000 nM | CCc1cc(C(C)Cc2cc3cc(-c4ccccc4C)ccc3nc2N)ncn1 (centres unmarked) [Example 10, 3-(2-(6-ethylpyrimidin-4-yl)propyl)-6-o-tolylquinolin-2-amine] | 1000 to 5000 nM
20 | 100 to 1000 nM | Cc1ccccc1-c1ccc2nc(N)c(COc3cc(C(F)(F)F)ncn3)cc2c1 [Example 11, 6-o-tolyl-3-((6-(trifluoromethyl)pyrimidin-4-yloxy)methyl)quinolin-2-amine] | > 5000 nM
21 | > 5000 nM | CCc1cc(OCc2cc3cc(-c4ccccc4C)ccc3nc2N)ncn1 [Example 14, 6-o-tolyl-3-((6-ethylpyrimidin-4-yloxy)methyl)quinolin-2-amine] | > 5000 nM
22 | 100 to 1000 nM | Cc1ccccc1-c1ccc2nc(N)c(CCc3cnn(Cc4ccccc4)c3)cc2c1 [Example 19, 3-(2-(1-benzyl-1H-pyrazol-4-yl)ethyl)-6-o-tolylquinolin-2-amine] | 1000 to 5000 nM
23 | 100 to 1000 nM | Cc1ccccc1-c1ccc2nc(N)c(CCc3cncc(CC(C)(C)C)c3)cc2c1 [Example 21, 3-(2-(5-neopentylpyridin-3-yl)ethyl)-6-o-tolylquinolin-2-amine] | > 5000 nM
24 | 100 to 1000 nM | Cc1ccccc1-c1ccc2nc(N)c(CCc3cncc(CCC(C)(C)C)c3)cc2c1 [Example 22, 3-(2-(5-(3,3-dimethylbutyl)pyridin-3-yl)ethyl)-6-o-tolylquinolin-2-amine] | > 5000 nM
25 | 1000 to 5000 nM | Cc1ccccc1-c1ccc2nc(N)c(CCc3cccc(C(F)(F)F)c3)cc2c1 [Example 23, 6-o-tolyl-3-(3-(trifluoromethyl)phenethyl)quinolin-2-amine] | > 5000 nM
26 | 1000 to 5000 nM | Cc1ccccc1-c1ccc2nc(N)c(C=Cc3cnn(C4CCCCC4)c3)cc2c1 [Example 24, 3-(2-(1-cyclohexyl-1H-pyrazol-4-yl)vinyl)-6-o-tolylquinolin-2-amine] | > 5000 nM
27 | < 100 nM | Cc1ccccc1-c1ccc2nc(N)c(CC(C)c3cncc(C4CCCCC4)c3)cc2c1 (centres unmarked) [Example 27, 3-(2-(5-cyclohexylpyridin-3-yl)propyl)-6-o-tolylquinolin-2-amine] | > 5000 nM
28 | 1000 to 5000 nM | Cc1ccccc1-c1ccc2nc(N)c(CCc3ccccn3)cc2c1 [Example 29, 3-(2-(pyridin-2-yl)ethyl)-6-o-tolylquinolin-2-amine] | > 5000 nM
29 | < 100 nM | Cc1ccccc1-c1ccc2nc(N)c(CC(C)c3cncc(C4CCCC4)c3)cc2c1 (centres unmarked) [Example 30, 3-(2-(5-cyclopentylpyridin-3-yl)propyl)-6-o-tolylquinolin-2-amine] | 1000 to 5000 nM
30 | 100 to 1000 nM | Cc1ccccc1-c1ccc2nc(N)c(CCc3cncc(C4CCCCO4)c3)cc2c1 (centres unmarked) [Example 31, 3-(2-(5-(tetrahydro-2H-pyran-2-yl)pyridin-3-yl)ethyl)-6-o-tolylquinolin-2-amine] | 1000 to 5000 nM
31 | < 100 nM | Cc1cccc(C(=O)N2CCCC2)c1-c1ccc2nc(N)c(CCc3cncnc3)cc2c1 [Example 33, (2-(2-amino-3-(2-(pyrimidin-5-yl)ethyl)quinolin-6-yl)-3-methylphenyl)(pyrrolidin-1-yl)methanone] | < 500 nM
